Measured values published in US10808001B2, “Biflavone-cobalt complex, preparation method and application thereof” (NANJING FORESTRY UNIVERSITY, priority 2017, dated 2020).

Assays:
herring sperm DNA (fDNA) = assay: Interaction with fDNA by UV-vis spectroscopy, fluorescence spectroscopy (fDNA-EB system) and viscosity method; format: binding; settings: UV-vis, fluorescence (fDNA-EB) and viscosity methods
Text: UV-vis spectroscopy, fluorescence spectroscopy and viscosity method are used to study the interaction between the Ame/Ame-Co complex and herring sperm DNA (fDNA) to further reveal the mechanism of antitumor activity, the obtained spectra are shown in FIGS. 7-11.

[1] = Pyrogallol auto-oxidation method, O2^−. free radical scavenging; settings: Tris-HCl pH 8.20, 25° C., 322 nm, read-out: IC50 to scavenge O2^−. free radical
Procedure: The free radical scavenging capacity and the total antioxidant capacity of the Ame and the Ame-Co complex were studied by pyrogallol auto-oxidation method, ABTS method and FRAP method with the following steps:
(1) Pyrogallol Auto-Oxidation Method
Determination of auto-oxidation rate V0 of pyrogallol: 2 mL Tris-HCl buffer (pH=8.20) was added to a 10 mL sample tube at 25° C., 100 μL DMSO was added as a control, after adding 0.8 mL distilled water, 0.2 mL pyrogallol solution having a concentration of 2 mmol·L^−1 was added, the mixture was poured into a cuvette after mixing uniformly, the absorbance at 322 nm was measured with pure water as a blank, the A value was recorded every 10 s for a total of 4 min, linear regression was performed with t as the abscissa, and A as the ordinate, straight line slope thereof is V0, and the measurement was performed for three times to obtain an average value. […]

[2] = FRAP method, total antioxidant capacity; settings: Fe^3+-TPTZ, 37° C., 30 min, 593 nm
Procedure: Drawing of the standard curve of FeSO4.7H2O: different volumes of FeSO4.7H2O solution were added to NaAc—HAc buffer (pH=3.6) to prepare Fe^2+ solution with different concentrations. 0.5 mL TPTZ solution, 0.1 mL DMSO, and 1.9 mL NaAc—HAc buffer containing Fe^2+ were successively added into a 10 mL sample tube, after reacting for 5 min at 37° C., the UV-vis spectrum was measured, and the absorption intensity at 593 nm was recorded, and the standard curve was drawn with absorbance (A) as the vertical coordinate and Fe^2+ concentration as the horizontal coordinate.
Determination of total antioxidant capacity of the sample: 0.5 mL TPTZ solution, 0.5 mL ferric chloride solution, 0.1 mL DMSO solution containing samples of different concentrations, and 1.5 mL NaAc—HAc buffer were successively added into a 10 mL sample tube, after reacting for 30 min at 37° C., the UV-vis spectrum was measured, and the absorption intensity A1 at 593 nm was recorded, the absorbance A1 of the sample was converted to the corresponding Fe^2+ ion concentration according to the standard curve of ferrous sulfate, and the curve was drawn with the sample concentration (csample) as the horizontal coordinate and the corresponding Fe^2+ concentration (cFe2+) as the vertical coordinate. […]

hepatoma cells (HepG2) = assay: MTT method, inhibition of hepatoma cells (HepG2); format: cell-based; settings: Homo sapiens, HepG2, absorbance at 595 nm, modified Karber formula, read-out: IC50, inhibition of growth of hepatoma cells (HepG2)
Procedure: (§1) The antitumor activity of Ame and Ame-Co complex were studied by MTT method with the following process:
(§2) (1) The HepG2 and HeLa cell suspensions were inoculated into 96-well culture plates, 100 μL was added for each well, (1×10^5/mL), and then cultured in a 5% CO2 incubator at 37° C. for 24 h;
(§3) (2) After culturing for 24 h, the supernatant was discarded, 100 μL of pre-diluted sample was added, 10 replicate wells were set for each concentration, and then incubated in the 5% CO2 incubator for 24 h; meanwhile, control wells (DMSO, cell suspension, MTT), and blank wells (medium, DMSO, MTT) were set;
(§4) (3) After culturing for […], the supernatant was discarded, 100 μL of DMEM medium containing MTT (5 mg/mL) were added, and then continuously cultured for 4 h; […]
(§5) Where, IR is the inhibition rate, OD0 is the absorbance of the control group, OD1 is the absorbance of the sample group, Xm is lg (the maximum dose), I is lg (the maximum dose/adjacent dose), P is the sum of positive reaction rates, Pm is the maximum positive reaction rate, and Pn is the minimum positive reaction rate.

[3] = test system: cervical cancer cells (HeLa); assay: MTT method, inhibition of cervical cancer cells (HeLa); format: cell-based; settings: Homo sapiens, absorbance at 595 nm, modified Karber formula, read-out: IC50, inhibition of growth of cervical cancer cells (HeLa)
Procedure: as §1, §2, §3, §4, §5

IC50 (hepatoma cells (HepG2)) [µM] | IC50 [3] [µM] | Structure (SMILES) | manner of interaction with fDNA (herring sperm DNA (fDNA)) | strength of interaction with fDNA compared with Ame (herring sperm DNA (fDNA)) | IC50 [1] [µM] | total antioxidant capacity compared with Ame at the same concentration [2]
 |  | CS(C)=[O+][Co-4]1([O+]=S(C)C)[O+]=C2C=C(c3ccc(O)cc3)Oc3c2c(cc(O)c3-c2cc(-c3cc(=O)c4c(O)cc(O)cc4o3)ccc2O)[OH+]1 [Ame-Co complex, amentoflavone-cobalt (Ame-Co) complex] | in the intercalation manner | stronger than that between the Ame and the fDNA | 4.74 | significantly stronger than that of Ame
13.6 | 8.04 | O=c1cc(-c2ccc(O)c(-c3c(O)cc(O)c4c(=O)cc(-c5ccc(O)cc5)oc34)c2)oc2cc(O)cc(O)c12 [Ame, amentoflavone] | in the intercalation manner |  | 23.3 | 
